What was measured:
CNS:U251 = tested on: CNS:U251; design: method as in earlier work; settings: NCI-60 panel; ref [4],[5],[6],[7]; cited from earlier work
LE:RPMI-8226 = tested on: LE:RPMI-8226; design: method as in earlier work; settings: NCI-60 panel; ref [4],[5],[6],[7]; cited from earlier work
ME:M14 = tested on: ME:M14; design: method as in earlier work; settings: NCI-60 panel; ref [4],[5],[6],[7]; cited from earlier work
ME:SK-MEL-28 = tested on: ME:SK-MEL-28; design: method as in earlier work; settings: NCI-60 panel; ref [4],[5],[6],[7]; cited from earlier work
ME:SK-MEL-5 = tested on: ME:SK-MEL-5; design: method as in earlier work; settings: NCI-60 panel; ref [4],[5],[6],[7]; cited from earlier work
LC:HOP-92 = tested on: LC:HOP-92; design: method as in earlier work; settings: NCI-60 panel; ref [4],[5],[6],[7]; cited from earlier work
LC:NCI-H226 = tested on: LC:NCI-H226; design: method as in earlier work; settings: NCI-60 panel; ref [4],[5],[6],[7]; cited from earlier work
OV:OVCAR-4 = tested on: OV:OVCAR-4; design: method as in earlier work; settings: NCI-60 panel; ref [4],[5],[6],[7]; cited from earlier work
ADRA1B = ADRA1B (Homo sapiens, UniProt P35368); experiment: gpcrMAX PathHunter beta-arrestin
ADRA1B, sequence (P35368 whole entry): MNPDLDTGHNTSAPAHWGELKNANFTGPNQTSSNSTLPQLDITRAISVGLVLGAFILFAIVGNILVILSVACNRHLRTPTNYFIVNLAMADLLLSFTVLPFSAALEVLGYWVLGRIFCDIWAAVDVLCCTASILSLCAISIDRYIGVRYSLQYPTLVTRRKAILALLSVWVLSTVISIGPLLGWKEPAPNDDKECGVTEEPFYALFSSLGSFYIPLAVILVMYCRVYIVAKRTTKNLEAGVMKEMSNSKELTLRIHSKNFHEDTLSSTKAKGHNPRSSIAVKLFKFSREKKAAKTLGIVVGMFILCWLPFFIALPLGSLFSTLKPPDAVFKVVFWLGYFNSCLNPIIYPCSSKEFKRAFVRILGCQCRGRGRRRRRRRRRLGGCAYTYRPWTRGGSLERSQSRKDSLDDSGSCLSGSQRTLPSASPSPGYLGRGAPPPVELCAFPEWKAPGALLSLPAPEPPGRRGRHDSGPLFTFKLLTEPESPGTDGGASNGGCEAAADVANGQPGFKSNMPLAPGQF

ADRA2C = ADRA2C (Homo sapiens, UniProt P18825); experiment: gpcrMAX PathHunter beta-arrestin
AGTR1 = AGTR1 (Homo sapiens, UniProt P30556); experiment: gpcrMAX PathHunter beta-arrestin
AVPR2 = AVPR2 (Homo sapiens, UniProt P30518); experiment: gpcrMAX PathHunter beta-arrestin
AVPR2, sequence (P30518 whole entry): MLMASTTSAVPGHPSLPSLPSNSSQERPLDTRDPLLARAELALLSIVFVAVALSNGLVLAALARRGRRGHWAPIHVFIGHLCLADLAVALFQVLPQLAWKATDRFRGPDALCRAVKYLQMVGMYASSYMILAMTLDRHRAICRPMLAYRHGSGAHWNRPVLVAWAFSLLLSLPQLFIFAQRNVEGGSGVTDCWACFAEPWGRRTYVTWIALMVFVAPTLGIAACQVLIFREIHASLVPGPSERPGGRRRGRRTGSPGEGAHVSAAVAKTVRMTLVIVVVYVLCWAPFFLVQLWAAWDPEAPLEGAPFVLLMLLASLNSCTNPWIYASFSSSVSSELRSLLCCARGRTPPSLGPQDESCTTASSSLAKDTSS

CALCRL-RAMP1 = CALCRL-RAMP1 (Homo sapiens, UniProt O60894+Q16602); experiment: gpcrMAX PathHunter beta-arrestin
CCR2 = CCR2 (Homo sapiens, UniProt P41597); experiment: gpcrMAX PathHunter beta-arrestin
CCR2, sequence (P41597 whole entry): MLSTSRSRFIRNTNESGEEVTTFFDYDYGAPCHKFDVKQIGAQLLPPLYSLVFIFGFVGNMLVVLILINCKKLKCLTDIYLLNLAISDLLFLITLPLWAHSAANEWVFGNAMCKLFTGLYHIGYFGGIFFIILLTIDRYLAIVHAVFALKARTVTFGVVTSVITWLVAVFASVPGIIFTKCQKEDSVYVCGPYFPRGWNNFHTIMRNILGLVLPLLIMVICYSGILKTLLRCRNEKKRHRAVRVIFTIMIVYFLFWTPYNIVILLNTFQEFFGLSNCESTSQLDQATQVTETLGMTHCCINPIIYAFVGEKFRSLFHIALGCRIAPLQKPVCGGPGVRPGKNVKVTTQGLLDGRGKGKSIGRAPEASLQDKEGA

CCR5 = CCR5 (Homo sapiens, UniProt P51681); experiment: gpcrMAX PathHunter beta-arrestin
CCR5, sequence (P51681 whole entry): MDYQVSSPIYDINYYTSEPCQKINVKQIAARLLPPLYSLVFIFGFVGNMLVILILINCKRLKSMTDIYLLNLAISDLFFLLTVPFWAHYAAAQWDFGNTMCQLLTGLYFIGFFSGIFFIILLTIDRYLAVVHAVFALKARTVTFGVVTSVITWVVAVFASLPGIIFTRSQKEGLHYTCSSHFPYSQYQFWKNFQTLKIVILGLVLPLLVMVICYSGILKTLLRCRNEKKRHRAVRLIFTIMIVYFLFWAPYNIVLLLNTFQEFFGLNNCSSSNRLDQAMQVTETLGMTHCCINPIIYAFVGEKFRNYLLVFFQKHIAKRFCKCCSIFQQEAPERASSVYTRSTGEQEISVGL

CCR6 = CCR6 (Homo sapiens, UniProt P51684); experiment: gpcrMAX PathHunter beta-arrestin
CCR6, sequence (P51684 whole entry): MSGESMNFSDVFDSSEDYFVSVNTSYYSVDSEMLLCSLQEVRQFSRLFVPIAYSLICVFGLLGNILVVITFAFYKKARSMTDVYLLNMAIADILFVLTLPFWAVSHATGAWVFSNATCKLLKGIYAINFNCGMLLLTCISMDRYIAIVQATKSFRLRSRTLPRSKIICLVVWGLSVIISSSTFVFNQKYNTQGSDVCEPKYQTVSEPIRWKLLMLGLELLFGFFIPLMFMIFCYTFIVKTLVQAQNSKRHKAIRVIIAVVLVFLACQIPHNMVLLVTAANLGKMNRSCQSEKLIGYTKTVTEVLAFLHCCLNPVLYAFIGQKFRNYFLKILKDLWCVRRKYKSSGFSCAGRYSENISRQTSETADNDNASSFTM

CRHR2 = CRHR2 (Homo sapiens, UniProt Q13324); experiment: gpcrMAX PathHunter beta-arrestin
DRD1 = DRD1 (Homo sapiens, UniProt P21728); experiment: gpcrMAX PathHunter beta-arrestin
DRD5 = DRD5 (Homo sapiens, UniProt P21918); experiment: gpcrMAX PathHunter beta-arrestin
EDG5 = EDG5 (Homo sapiens, UniProt O95136); experiment: gpcrMAX PathHunter beta-arrestin
EDNRB = EDNRB (Homo sapiens, UniProt P24530); experiment: gpcrMAX PathHunter beta-arrestin
F2R = F2R (Homo sapiens, UniProt P25116); experiment: gpcrMAX PathHunter beta-arrestin
F2RL1 = F2RL1 (Homo sapiens, UniProt P55085); experiment: gpcrMAX PathHunter beta-arrestin
FFAR1 = FFAR1 (Homo sapiens, UniProt O14842); experiment: gpcrMAX PathHunter beta-arrestin
FFAR1, sequence (O14842 whole entry): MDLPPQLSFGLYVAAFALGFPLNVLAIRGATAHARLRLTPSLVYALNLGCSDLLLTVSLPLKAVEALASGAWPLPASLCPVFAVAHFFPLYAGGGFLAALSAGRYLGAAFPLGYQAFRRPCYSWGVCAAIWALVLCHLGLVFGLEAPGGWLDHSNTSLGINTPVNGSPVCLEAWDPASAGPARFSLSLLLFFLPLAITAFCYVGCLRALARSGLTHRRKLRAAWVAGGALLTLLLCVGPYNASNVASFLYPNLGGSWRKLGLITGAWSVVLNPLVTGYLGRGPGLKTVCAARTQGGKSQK

GALR1 = GALR1 (Homo sapiens, UniProt P47211); experiment: gpcrMAX PathHunter beta-arrestin
GALR1, sequence (P47211 whole entry): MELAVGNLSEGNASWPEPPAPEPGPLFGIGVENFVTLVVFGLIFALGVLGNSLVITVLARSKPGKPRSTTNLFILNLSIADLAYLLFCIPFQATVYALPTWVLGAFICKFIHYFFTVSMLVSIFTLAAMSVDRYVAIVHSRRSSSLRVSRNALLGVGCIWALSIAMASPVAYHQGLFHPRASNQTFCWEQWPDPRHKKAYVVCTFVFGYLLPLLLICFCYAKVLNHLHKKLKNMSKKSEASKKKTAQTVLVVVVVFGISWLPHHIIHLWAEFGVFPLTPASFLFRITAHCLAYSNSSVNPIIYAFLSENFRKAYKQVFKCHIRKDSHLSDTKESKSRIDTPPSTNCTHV

GPR103 = GPR103 (Homo sapiens, UniProt Q96P65); experiment: gpcrMAX PathHunter beta-arrestin
GPR92 = GPR92 (Homo sapiens, UniProt Q9H1C0); experiment: gpcrMAX PathHunter beta-arrestin
HRH1 = HRH1 (Homo sapiens, UniProt P35367); experiment: gpcrMAX PathHunter beta-arrestin
HRH2 = HRH2 (Homo sapiens, UniProt P25021); experiment: gpcrMAX PathHunter beta-arrestin
LHCGR = LHCGR (Homo sapiens, UniProt P22888); experiment: gpcrMAX PathHunter beta-arrestin
MC1R = MC1R (Homo sapiens, UniProt Q01726); experiment: gpcrMAX PathHunter beta-arrestin
MC1R, sequence (Q01726 whole entry): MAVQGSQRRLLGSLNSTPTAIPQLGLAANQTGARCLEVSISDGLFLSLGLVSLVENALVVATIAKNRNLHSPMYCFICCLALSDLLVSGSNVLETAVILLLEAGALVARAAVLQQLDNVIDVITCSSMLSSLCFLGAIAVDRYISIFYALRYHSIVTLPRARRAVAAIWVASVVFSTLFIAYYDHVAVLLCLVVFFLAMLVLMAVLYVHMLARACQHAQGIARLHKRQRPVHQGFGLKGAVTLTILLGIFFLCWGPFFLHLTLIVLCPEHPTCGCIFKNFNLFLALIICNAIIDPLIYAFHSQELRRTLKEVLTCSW

NMBR = NMBR (Homo sapiens, UniProt P28336); experiment: gpcrMAX PathHunter beta-arrestin
NPBWR1 = NPBWR1 (Homo sapiens, UniProt P48145); experiment: gpcrMAX PathHunter beta-arrestin
NPY2R = NPY2R (Homo sapiens, UniProt P49146); experiment: gpcrMAX PathHunter beta-arrestin
NPY2R, sequence (P49146 whole entry): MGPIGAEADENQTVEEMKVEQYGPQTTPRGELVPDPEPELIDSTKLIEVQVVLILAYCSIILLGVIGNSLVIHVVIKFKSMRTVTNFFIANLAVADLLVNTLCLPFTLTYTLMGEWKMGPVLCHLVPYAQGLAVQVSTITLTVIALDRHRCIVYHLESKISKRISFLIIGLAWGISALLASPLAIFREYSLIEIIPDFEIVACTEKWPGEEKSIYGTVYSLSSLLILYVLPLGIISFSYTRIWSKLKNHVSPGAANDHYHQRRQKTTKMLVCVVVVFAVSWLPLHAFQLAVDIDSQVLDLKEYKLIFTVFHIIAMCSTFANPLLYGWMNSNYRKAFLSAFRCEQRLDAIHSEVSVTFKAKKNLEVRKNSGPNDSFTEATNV

OPRM1 = OPRM1 (Homo sapiens, UniProt P35372); experiment: gpcrMAX PathHunter beta-arrestin
P2RY2 = P2RY2 (Homo sapiens, UniProt P41231); experiment: gpcrMAX PathHunter beta-arrestin
P2RY2, sequence (P41231 whole entry): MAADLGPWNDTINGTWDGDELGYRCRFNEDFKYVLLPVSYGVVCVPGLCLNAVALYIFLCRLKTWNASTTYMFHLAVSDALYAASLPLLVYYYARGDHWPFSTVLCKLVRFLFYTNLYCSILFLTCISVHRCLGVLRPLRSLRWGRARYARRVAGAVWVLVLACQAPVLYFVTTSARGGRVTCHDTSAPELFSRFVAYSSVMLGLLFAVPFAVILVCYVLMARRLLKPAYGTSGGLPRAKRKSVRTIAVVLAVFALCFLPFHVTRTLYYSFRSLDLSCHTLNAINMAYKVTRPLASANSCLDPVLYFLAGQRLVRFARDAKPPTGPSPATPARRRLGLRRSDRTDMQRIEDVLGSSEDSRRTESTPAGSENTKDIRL

PPYR1 = PPYR1 (Homo sapiens, UniProt P50391); experiment: gpcrMAX PathHunter beta-arrestin
PPYR1, sequence (P50391 whole entry): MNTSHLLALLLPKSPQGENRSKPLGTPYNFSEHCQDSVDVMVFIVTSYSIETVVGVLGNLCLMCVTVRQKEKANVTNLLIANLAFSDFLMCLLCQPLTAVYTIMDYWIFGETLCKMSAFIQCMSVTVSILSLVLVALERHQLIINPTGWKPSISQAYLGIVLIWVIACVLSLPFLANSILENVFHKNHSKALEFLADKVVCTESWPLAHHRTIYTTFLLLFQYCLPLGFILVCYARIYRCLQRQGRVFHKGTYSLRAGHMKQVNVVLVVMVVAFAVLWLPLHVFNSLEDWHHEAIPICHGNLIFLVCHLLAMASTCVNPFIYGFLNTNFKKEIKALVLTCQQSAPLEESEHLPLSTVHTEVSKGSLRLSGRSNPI

PTAFR = PTAFR (Homo sapiens, UniProt P25105); experiment: gpcrMAX PathHunter beta-arrestin
PTAFR, sequence (P25105 whole entry): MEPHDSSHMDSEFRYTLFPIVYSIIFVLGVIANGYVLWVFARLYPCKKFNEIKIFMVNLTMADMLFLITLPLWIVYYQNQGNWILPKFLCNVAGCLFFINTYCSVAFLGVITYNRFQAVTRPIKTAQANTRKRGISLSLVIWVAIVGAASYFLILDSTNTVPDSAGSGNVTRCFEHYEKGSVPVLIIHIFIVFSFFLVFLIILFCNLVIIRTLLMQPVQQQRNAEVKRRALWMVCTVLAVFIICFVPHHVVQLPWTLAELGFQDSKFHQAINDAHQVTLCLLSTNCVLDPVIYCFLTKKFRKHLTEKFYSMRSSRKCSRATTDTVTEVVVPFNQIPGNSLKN

PTGER4 = PTGER4 (Homo sapiens, UniProt P35408); experiment: gpcrMAX PathHunter beta-arrestin
PTGER4, sequence (P35408 whole entry): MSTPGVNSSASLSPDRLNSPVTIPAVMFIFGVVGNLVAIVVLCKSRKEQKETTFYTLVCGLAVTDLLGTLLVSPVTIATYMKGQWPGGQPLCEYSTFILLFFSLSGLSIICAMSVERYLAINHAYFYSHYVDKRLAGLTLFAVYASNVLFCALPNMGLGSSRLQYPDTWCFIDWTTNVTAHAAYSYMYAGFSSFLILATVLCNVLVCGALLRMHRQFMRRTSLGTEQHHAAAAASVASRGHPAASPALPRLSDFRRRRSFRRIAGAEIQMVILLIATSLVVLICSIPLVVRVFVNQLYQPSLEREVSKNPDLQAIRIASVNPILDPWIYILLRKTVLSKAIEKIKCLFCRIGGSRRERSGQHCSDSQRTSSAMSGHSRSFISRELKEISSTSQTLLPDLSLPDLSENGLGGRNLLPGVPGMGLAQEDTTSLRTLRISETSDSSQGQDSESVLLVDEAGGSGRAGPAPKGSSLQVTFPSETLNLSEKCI

SSTR3 = SSTR3 (Homo sapiens, UniProt P32745); experiment: gpcrMAX PathHunter beta-arrestin

For `Cc1c(Cl)cccc1NC(=O)c1sc2nc3c(cc2c1N)C(=O)CCC3` [Compound 1], the GI50 (CNS:U251) is given as 96.2 nM, the GI50 (LE:RPMI-8226) is given as 256 nM and the GI50 (ME:M14) is given as 71.3 nM. The GI50 (ME:SK-MEL-28) was 224 nM, the GI50 (ME:SK-MEL-5) was 237 nM and the GI50 (LC:HOP-92) was 47.9 nM. For the same compound, the GI50 (LC:NCI-H226) was 102 nM, the GI50 (OV:OVCAR-4) was 604 nM and the inhibition at 10 µM (ADRA1B) was 11%. For the same compound, the inhibition at 10 µM (ADRA2C) was -14%, the inhibition at 10 µM (AGTR1) was 7% and the inhibition at 10 µM (AVPR2) was 13%. The inhibition at 10 µM (CALCRL-RAMP1) was 6%, the inhibition at 10 µM (CCR2) was -8% and the inhibition at 10 µM (CCR5) was 11%. The inhibition at 10 µM (CCR6) was -6%, the inhibition at 10 µM (CRHR2) was 8% and the inhibition at 10 µM (DRD1) was 12%. The inhibition at 10 µM (DRD5) was -31%, the inhibition at 10 µM (EDG5) was -1% and the inhibition at 10 µM (EDNRB) was 0%. The inhibition at 10 µM (F2R) was 5%, the inhibition at 10 µM (F2RL1) was 11% and the inhibition at 10 µM (FFAR1) was -59%. It also gave an inhibition at 10 µM (GALR1) of 12%, an inhibition at 10 µM (GPR103) of -5% and an inhibition at 10 µM (GPR92) of -28%. It also gave an inhibition at 10 µM (HRH1) of 13%, an inhibition at 10 µM (HRH2) of 10% and an inhibition at 10 µM (LHCGR) of -2%. It also gave an inhibition at 10 µM (MC1R) of -16%, an inhibition at 10 µM (NMBR) of 28% and an inhibition at 10 µM (NPBWR1) of -14%. The inhibition at 10 µM (NPY2R) was -9%, the inhibition at 10 µM (OPRM1) was -18% and the inhibition at 10 µM (P2RY2) was -14%. It also gave an inhibition at 10 µM (PPYR1) of -18%, an inhibition at 10 µM (PTAFR) of 2% and an inhibition at 10 µM (PTGER4) of 7%. The inhibition at 10 µM (SSTR3) was 5%.
